Here are results for one compound from US11369609B2, “Small molecule Wnt inhibitor as treatment for dyslipidemia” (Yale University, priority 2019, dated 2022).

Experiment [1] has as its system kidney endothelial cells. Kind of experiment: Fatty acid oxidation (14CO2 release from [14C]palmitate) in isolated kidney endothelial cells. The format is in vivo, mice. To be noted: diabetic CD-1 mice, Wnt inhibitor. The procedure: Endothelial cells from the kidneys of non-diabetic and diabetic mice were isolated using a standardized kit (Miltenyl Biotech, USA) by following the manufacturer's instructions. Briefly, kidneys were isolated and minced into small pieces. Using a series of enzymatic reactions by treating the tissue with trypsin and Collagenase type I solution, a single cell suspension was created. The pellet was dissolved with CD31 magnetic beads and the CD31-labelled cells were separated on a magnetic separator. The cells were further purified on a column. Cell number was counted by hemocytometer and cells were plated on 0.1% gelatin coated Petri dishes.
Cultured isolated kidney endothelial cells were incubated with medium containing 0.75 mmol/L palmitate (conjugated to 2% free fatty acid-free BSA/[^14C] palmitate at 2 μCi/mL) for 2 h. One mL of the culture medium was transferred to a sealable tube, the cap of which housed a Whatman filter paper disc. ^14CO2 trapped in the media was then released by acidification of media using 60% perchloric acid. Radioactivity that had become adsorbed onto the filter discs was then quantified by liquid scintillation counting.
It is increasingly recognized that defects in central metabolism contribute to kidney fibrosis (69, 76). Defective FA metabolism in EC leads to EndMT events (77). To investigate whether FA metabolism was deranged in the model, radiolabeled [^14C]palmitate uptake experiments were performed in isolated EC from mouse kidneys. FA uptake was higher in isolated EC from the diabetic kidneys of the more fibrotic strain (diabetic CD-1) when compared to kidney EC from the less-fibrotic strain (diabetic C57BL/6). […] FA oxidation (FAO) was also assessed by measuring the ^14CO2 release from radiolabeled [^14C]palmitate in cultured EC isolated from kidneys. […] In the next set of experiments, diabetic CD-1 mice were treated with the FA synthase inhibitor C75, the FAO inhibitor etomoxir, the PPARα agonist fenofibrate, and the cholesterol-lowering drug simvastatin for 4 weeks. […] (FIG. 23A). Fenofibrate and C75 restored the level of GR protein in CD31 positive cells, whereas etomoxir and simvastatin suppressed it (FIG. 23B).

The test system of experiment [2] is canonical Wnt signaling. Nature of the experiment: Renal fibrosis in unilateral ureteral obstruction (UUO) mice treated with Wnt inhibitor. It counts as in vivo. How it is done:
UUO surgery procedure was performed as previously described (44). Briefly, mice were anesthetized with isoflurane (3%-5% for induction and 1%-3% for maintenance). Mice were shaved on the left side of the abdomen, a vertical incision was made through the skin with a scalpel, and the skin was retracted. A second incision was made through the peritoneum to expose the kidney. The left ureter was ligated twice 15 mm below the renal pelvis with surgical silk, and the ureter was then severed between the 2 ligatures. Then, the ligated kidney was placed gently back into its correct anatomical position, and sterile saline was added to replenish loss of fluid. The incisions were sutured and mice were individually caged. Buprenorphine was used as an analgesic. The first dose was administered 30 minutes before surgery and then every 12 h for 72 h, at a dose of 0.05 mg/kg subcutaneously. Mice were sacrificed and kidney and blood samples were harvested after perfusion with PBS at 10 days after UUO. Contralateral kidneys were used as a nonfibrotic control for all experiments using this model.
(§1) A point-counting method was utilized to evaluate the relative area of the mesangial matrix. PAS-stained glomeruli from each mouse were analyzed using a digital microscope screen grid containing 540 (27×20) points. Masson's trichrome-stained images were evaluated by ImageJ software, and the fibrotic areas were estimated.
(§2) Deparaffinized sections were incubated with picrosirius red solution for 1 hour at room temperature. The slides were washed twice with acetic acid solution for 30 seconds per wash. The slides were then dehydrated in absolute alcohol three times, cleared in xylene, and mounted with a synthetic resin. Sirius red staining was analyzed using ImageJ software, and fibrotic areas were quantified.
(§3) Paraffin-embedded kidney sections (5 μm thick) were deparaffinized and rehydrated (2 min in xylene, four times; 1 min in 100% ethanol, twice; 1 min in 95% ethanol; 45 s in 70% ethanol; and 1 min in distilled water), and the antigen was retrieved in a 10 mM citrate buffer pH 6 at 98° C. for 60 min. To block the endogenous peroxidase, all sections were incubated in 0.3% hydrogen peroxide for 10 min. The immunohistochemistry was performed using a Vectastain ABC Kit (Vector Laboratories, Burlingame, Calif.). Mouse anti-[…] antibody (1:100) and CPT1a (Abnova; H00001374-DO1P; 1:100) antibody was used. In the negative controls, the primary antibody was omitted and replaced with the blocking solution.
(§4) Frozen kidney sections (5 μm) were used for immunofluorescence; double positive labeling with CD31/αSMA, CD31/TGFβR1 and E-cadherin/αSMA was measured. Briefly, frozen sections were dried and placed in acetone for 10 min at −30° C. Once the sections were dried, they were washed twice in phosphate-buffered saline (PBS) for 5 min and then blocked in 2% bovine serum albumin/PBS for 30 min at room temperature. Thereafter, the sections were incubated in primary antibody (1:100) for 1 hour and washed in PBS (5 min) three times. Next, the sections were incubated with the secondary antibodies for 30 min, washed with PBS three times (5 min each), and mounted with mounting medium with DAPI (Vector Laboratories, Burlingame, Calif.). The immune-labeled sections were analyzed by fluorescence microscopy. For each mouse, original magnification of ×400 pictures were obtained from six different areas, and quantification was performed.
(§5) To determine whether inhibition of the Wnt signaling pathway could ameliorate the observed fibrosis, LGK974, a small molecule inhibitor of all secreted Wnts (43), was utilized. FIGS. 21A-21B depict the schematic diagram showing the experimental protocol for LGK974 treatment in diabetic CD-1 and UUO mice.

In experiment [3] the test system is canonical Wnt signaling. Nature of the experiment: Renal fibrosis in STZ-induced diabetic CD-1 mice treated with Wnt inhibitor. The format is in vivo. The procedure:
All experiments were performed in accordance with the National Institute of Health (NIH) Guidelines for the Care of Laboratory Animals. Mice lacking the endothelial glucocorticoid receptor (GR) (known as GR^ECKO) and those lacking this receptor on the Apo E null background (DKO) were generated as previously described (6). The induction of diabetes in CD-1 mice and C57B/L6 mice was performed according to previously established experimental protocols (38-42). Briefly, diabetes was induced in 10-week-old GR^ECKO mice with five consecutive intraperitoneal (IP) doses of streptozotocin (STZ) 50 mg/kg in 10 mmol/L citrate buffer (pH 4.5). Wnt inhibitor (LGK974) was provided to GR^ECKO and control littermate at 5 mg/kg at a frequency of six doses per week for 8 weeks (43). Etomoxir (20 mg/kg) and c75 (15 mg/kg) were dosed (ip) three times per week for 3 weeks in the GR^ECKO and control littermate. A single IP dose of 200 mg/kg STZ was used to induce diabetes in CD-1 mice. Fenofibrate (100 mg/kg), simvastatin (40 mg/kg), were dosed orally for 4 weeks in diabetic CD-1 mice. All mice were sacrificed after 4 weeks of treatment and tissues and blood were harvested. Urine albumin levels were assayed using a Mouse Albumin ELISA Kit (Exocell, Philadelphia, Pa.).
as §1, §2, §3, §4, §5

Setting [4] is: diabetic CD-1 mice, LGK974 5 mg/kg.

Each structure is given as a SMILES string. “Also recorded” adds a separate entry of the source.

`Cc1cc(-c2ncc(CC(=O)Nc3ccc(-c4cnccn4)cn3)cc2C)ccn1` [LGK974]: the “level of FAO in isolated kidney EC” value in experiment [1] is “able to restore the level of FAO”. Further, in experiment [2] (LGK974 5 mg/kg), the ECM deposition result is listed as “greatly diminished”, the collagen accumulation result is “greatly diminished”, the glomerulosclerosis result was “greatly diminished” and the relative area fibrosis result was “greatly diminished”. The “endothelial GR level” value in experiment [2] (kidney CD31-positive cells) is listed as “significantly restored”. Moreover, the “level of β-catenin” value in experiment [2] (kidney immunohistochemistry) is on record as “suppressed”. Further, in experiment [3] (setting [4]), the ECM deposition result is on record as “greatly diminished”, the collagen accumulation result was “greatly diminished”, the glomerulosclerosis entry was “greatly diminished” and the relative area fibrosis entry was “greatly diminished”. For the same compound, the “endothelial GR level” value in experiment [3] (diabetic mice, kidney CD31-positive cells) is reported as “significantly restored”. In experiment [3] (diabetic mice, kidney immunohistochemistry), the “level of β-catenin” value is recorded as “suppressed”. Besides, the “canonical Wnt signaling” value in experiment [3] (mouse model of diabetic kidney disease) is on record as “clearly suppressed”. The fibrogenic phenotype entry in experiment [3] (mouse model of diabetic kidney disease (b57 legend also UUO mice)) is on record as “substantially improved; also recorded: abolishes the fibrogenic phenotype”.
